Among the data in patent US12492210B2, “Tricyclic compounds and their use” (HUTCHISON MEDIPHARMA LIMITED, priority 2019, dated 2025) are IC50 values, retold here.

Each structure is given as a SMILES string. pIC50: −log10 of the molar value.

In assay [1] the target is T1, MAPK1(ERK2) enzyme (Homo sapiens, UniProt P28482).
T1 construct: purchased Invitrogen PV3313
Kind of assay: Z-Lyte Kinase Assay of ERK2. Particulars: read-out: Example 18 IC50. It is filed as biochemical. An outline of the steps: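 FRET-based Z-LYTE assay using ERK2 kinase with Ser/Thr3 peptide; compound tested at 0.00046–1 μM final in 2% DMSO. Kinase reaction ran 1 h at 25-30° C, followed by 1 h development. The coumarin/fluorescein emission ratio (445/520 nm) gave % phosphorylation, and IC50 was fitted from inhibition relative to uninhibited control.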

For assay [2], the system named is p-RSK (Thr359) in colo205 cells. In words: p-RSK (Thr359) Acumen Assay in Colo205. It is filed as cell-based. Particulars: Homo sapiens, COLO 205, 1 hour compound incubation, read-out: Example 19 IC50. A digest of the protocol:
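Colo205 cells (4000/well, seeded overnight in 10% FBS) were exposed 1 hour at 37° C to compound added from a 3–0.001 μM dilution series in 5% DMSO. Cells were then fixed, permeabilised and immunostained for p-RSK Thr359, with PI counterstain. Acumen cytometry gave the percentage of positive cells, normalised to untreated wells and 3 uM GDC0994 wells, for the IC50 fit.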

T1 sequence (P28482 whole entry): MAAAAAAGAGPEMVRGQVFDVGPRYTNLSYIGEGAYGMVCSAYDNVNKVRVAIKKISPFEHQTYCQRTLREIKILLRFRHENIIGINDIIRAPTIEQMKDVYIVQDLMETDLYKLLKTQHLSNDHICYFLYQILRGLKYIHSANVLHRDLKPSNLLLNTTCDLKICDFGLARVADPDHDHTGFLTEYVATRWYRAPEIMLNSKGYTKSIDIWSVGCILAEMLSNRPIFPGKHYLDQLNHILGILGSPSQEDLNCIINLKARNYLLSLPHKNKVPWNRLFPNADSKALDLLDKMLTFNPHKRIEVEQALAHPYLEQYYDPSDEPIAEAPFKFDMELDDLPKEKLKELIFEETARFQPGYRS

Turning to `Cc1cnc(Nc2nncs2)nc1-c1cc2n(c1)C[C@H](C)n1c-2nnc1C(F)(F)c1ccccc1F` [Compound 287], the pIC50 was 8.00 to 8.30 in assay [1] and at least 7.00 in assay [2].

With `Cc1cc(Nc2ncc(C)c(-c3cc4n(c3)C[C@H](C)n3c-4nnc3C(F)(F)c3ccccc3F)n2)n(C)n1` [Compound 288], the pIC50 was under 8.00 in assay [1] and at least 7.00 in assay [2].

Regarding `CCn1nccc1Nc1ncc(C)c(-c2cc3n(c2)C[C@H](C)n2c-3nnc2C(F)(F)c2ccccc2F)n1` [Compound 289], the pIC50 in assay [1] was under 8.00; in assay [2], at least 7.00.

`Cc1cnc(Nc2c(F)cnn2C)nc1-c1cc2n(c1)C[C@H](C)n1c-2nnc1C(F)(F)c1ccccc1F` [Compound 290]: the pIC50 in assay [1] is 8.00 to 8.30; in assay [2] it was under 7.00.

On to `CCCn1nccc1Nc1ncc(C)c(-c2cc3n(c2)C[C@H](C)n2c-3nnc2C(F)(F)c2ccccc2F)n1` [Compound 291], for which the pIC50 in assay [1] was under 8.00; in assay [2], at least 7.00.

With `Cc1cnc(Nc2ccnn2C(C)C)nc1-c1cc2n(c1)C[C@H](C)n1c-2nnc1C(F)(F)c1ccccc1F` [Compound 292], the pIC50 in assay [1] is under 8.00; in assay [2], under 7.00.

As to `Cc1cnc(Nc2ccnn2CCO)nc1-c1cc2n(c1)C[C@H](C)n1c-2nnc1C(F)(F)c1ccccc1F` [Compound 293], the pIC50 in assay [1] was 8.00 to 8.30; in assay [2], at least 7.00.

With `COc1cc(Nc2ncc(C)c(-c3cc4n(c3)C[C@H](C)n3c-4nnc3C(F)(F)c3ccccc3F)n2)c(C)cn1` [Compound 294], the pIC50 was under 8.00 in assay [1] and under 7.00 in assay [2].

For the molecule `Cc1cnc(Nc2ccnn2C2COC2)nc1-c1cc2n(c1)C[C@H](C)n1c-2nnc1C(F)(F)c1ccccc1F` [Compound 295], the pIC50 was 8.00 to 8.30 in assay [1] and at least 7.00 in assay [2].

Consider `COCCn1nccc1Nc1ncc(C)c(-c2cc3n(c2)C[C@H](C)n2c-3nnc2C(F)(F)c2ccccc2F)n1` [Compound 296], for which the pIC50 in assay [1] was 8.00 to 8.30; in assay [2], at least 7.00.

As to `Cc1cnc(Nc2ccnn2CCCO)nc1-c1cc2n(c1)C[C@H](C)n1c-2nnc1C(F)(F)c1ccccc1F` [Compound 297], the values for the pIC50 in assay [1] and in assay [2] were under 8.00 and at least 7.00, respectively.

On to `Cc1cnc(Nc2ccnn2CC(F)F)nc1-c1cc2n(c1)C[C@H](C)n1c-2nnc1C(F)(F)c1ccccc1F` [Compound 298], for which the pIC50 was under 8.00 in assay [1] and at least 7.00 in assay [2].

Consider `Cn1nccc1Nc1cc(-c2cc3n(c2)CC(CO)Cn2c-3nnc2C2(C(F)(F)F)CCC2)c(Cl)cn1` (stereo not drawn) [Compound 299, (10-(5-chloro-2-((1-methyl-1H-pyrazol-5-yl)amino)pyridin-4-yl)-3-(1-(trifluoromethyl)cyclobutyl)-6,7-dihydro-5H-pyrrolo[1,2-a][1,2,4]triazolo[3,4-c][1,4]diazepin-6-yl)methanol], for which the results for the pIC50 in assay [1] and in assay [2] were at least 8.30 and at least 7.00, respectively.

Regarding `COCC1Cn2cc(-c3cc(Nc4ccnn4C)ncc3Cl)cc2-c2nnc(C3(C(F)(F)F)CCC3)n2C1` (stereo not drawn) [Compound 300, 5-chloro-4-(6-(methoxymethyl)-3-(1-(trifluoromethyl)cyclobutyl)-6,7-dihydro-5H-pyrrolo[1,2-a][1,2,4]triazolo[3,4-c][1,4]diazepin-10-yl)-N-(1-methyl-1H-pyrazol-5-yl)pyridin-2-amine], the results for the pIC50 in assay [1] and in assay [2] were 8.00 to 8.30 and at least 7.00, respectively.

As for `COC[C@H]1Cn2cc(-c3cc(Nc4ccnn4C)ncc3Cl)cc2-c2nnc(C(F)(F)C(F)F)n21` [Compound 301], the values for the pIC50 in assay [1] and in assay [2] were at least 8.30 and under 7.00, respectively.

Turning to `CO[C@@H]1Cn2cc(-c3cc(Nc4ccnn4C)ncc3Cl)cc2-c2nnc(C3(C(F)(F)F)CCC3)n2C1` [Compound 302], the pIC50 in assay [1] was at least 8.30; in assay [2], at least 7.00.

Take `COC[C@H]1Cn2cc(-c3cc(Nc4ccnn4C)ncc3C)cc2-c2nnc(C(F)(F)c3ccccc3F)n21` [Compound 303]: the figures for the pIC50 in assay [1] and in assay [2] were 8.00 to 8.30 and under 7.00, respectively.

As to `Cn1nccc1Nc1cc(-c2cc3n(c2)CC2(COC2)Cn2c-3nnc2C(F)(F)C(F)F)c(Cl)cn1` [Compound 304, 5-chloro-N-(1-methyl-1H-pyrazol-5-yl)-4-(3′-(1,1,2,2-tetrafluoroethyl)-5′H,7′H-spiro[oxetane-3,6′-pyrrolo[1,2-a][1,2,4]triazolo[3,4-c][1,4]diazepin]-10′-yl)pyridin-2-amine], the results for the pIC50 in assay [1] and in assay [2] were at least 8.30 and at least 7.00, respectively.

`Cn1nccc1Nc1cc(-c2cc3n(c2)CC2(COC2)n2c(CCC(F)(F)F)nnc2-3)c(Cl)cn1` [Compound 305]: the pIC50 in assay [1] was at least 8.30; in assay [2], under 7.00.

In the case of `Cc1cnc(Nc2ccnn2C)cc1-c1cc2n(c1)CC1(COC1)Cn1c-2nnc1C1(C(F)(F)F)CCC1` [Compound 306], the pIC50 was at least 8.30 in assay [1] and at least 7.00 in assay [2].

As for `Cn1nccc1Nc1cc(-c2cc3n(c2)CC2(COC2)Cn2c-3nnc2C2(C(F)(F)F)CCC2)c(Cl)cn1` [Compound 307], the pIC50 in assay [1] is at least 8.30; in assay [2] it was at least 7.00.
